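Protocol summary: plate cells (96-well), add compound at 5 concentrations, incubate 48 h, interpolate endpoints linearly. Here, GI50 denotes the concentration required for 50% inhibition of growth.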 Calls of active or inactive are those of the source. Rule as the data show it: active = GI50 up to about 1.1 µM and inactive = higher.
Tests used:
Assay in all cases: DTP human tumour cell line panel, 48 h
[1] = test system: UACC-62
[2] = test system: OVCAR-8
[3] = test system: OVCAR-3
[4] = test system: NCI-H23
[5] = test system: OVCAR-5
[6] = test system: OVCAR-4
[7] = test system: SK-MEL-5
[8] = test system: NCI-H460
[9] = test system: M14
[10] = test system: HOP-92
[11] = test system: HOP-62
[12] = test system: CAKI-1
[13] = test system: K562
[14] = test system: RPMI-8226
[15] = test system: SW-620
[16] = test system: SF-268
[17] = test system: SF-295

Measured: GI50

NC(=O)COC(=O)c1c(Cl)nc2sccn12
inactive: [1] > 100 µM | [2] > 100 µM | [3] > 43.7 µM | [4] > 100 µM | [5] > 100 µM | [6] > 100 µM | [7] > 100 µM | [8] > 61.2 µM | [9] > 100 µM | [10] > 100 µM | [11] > 100 µM | [12] > 100 µM | [13] > 63.2 µM | [14] > 37 µM | [15] > 35.3 µM | [16] > 100 µM | [17] > 100 µM

CC(C)c1cccc(C(C)C)c1NC(=O)/C(Cc1nc2ccc(Cl)cc2nc1O)=N\NC(=O)C[N+](C)(C)C
inactive: [1] > 100 µM | [2] > 100 µM | [3] > 100 µM | [4] > 100 µM | [5] > 100 µM | [6] > 100 µM | [7] > 100 µM | [8] > 100 µM | [9] > 100 µM | [10] 85.5 µM | [11] > 100 µM | [12] 95.7 µM | [13] > 100 µM | [14] > 100 µM | [15] > 100 µM | [16] > 100 µM | [17] > 100 µM

COc1ccc(Br)c(N/N=C2\CCCNC2=O)c1
inactive: [1] > 100 µM | [2] > 100 µM | [3] > 100 µM | [4] > 100 µM | [5] 44.6 µM | [6] > 100 µM | [7] 96.6 µM | [8] > 100 µM | [9] > 100 µM | [10] 48.9 µM | [11] > 100 µM | [12] 36.3 µM | [13] > 100 µM | [14] 51.5 µM | [15] 71.1 µM | [17] > 100 µM

C[C@]12CCC[C@H](O)[C@H]1C[C@H](CO)CC2
inactive: [1] > 100 µM | [2] > 100 µM | [3] > 100 µM | [4] > 100 µM | [5] > 100 µM | [6] > 100 µM | [8] > 100 µM | [9] > 100 µM | [10] > 100 µM | [11] > 100 µM | [12] > 100 µM | [13] > 100 µM | [14] > 100 µM | [15] > 100 µM | [16] > 100 µM | [17] > 100 µM

CCOC(=O)C1=C(NC(C)(C)C)OCC1=O
inactive: [1] > 100 µM | [2] > 100 µM | [3] > 100 µM | [4] 92.7 µM | [5] > 100 µM | [6] > 100 µM | [8] > 100 µM | [9] > 100 µM | [10] > 100 µM | [11] > 100 µM | [12] > 100 µM | [13] > 100 µM | [14] > 100 µM | [15] > 100 µM | [16] > 100 µM | [17] > 100 µM

O=C(O)/C(Cl)=C(\Cl)C(=O)Nc1ccc(Cl)c(Cl)c1Cl
inactive: [1] 13.3 µM | [3] 19 µM | [4] 18.7 µM | [5] 18.2 µM | [6] 19.4 µM | [7] 29.4 µM | [8] 21.8 µM | [9] 18.2 µM | [10] 17.2 µM | [11] 29.5 µM | [12] 18.1 µM | [13] 28 µM | [14] 28.9 µM | [15] 20.5 µM | [16] 25 µM | [17] 18.5 µM

CCOC(OCC)C(CC)[Se]c1ccccc1 (centres undefined)
inactive: [1] > 100 µM | [2] > 100 µM | [3] > 100 µM | [4] 7.13 µM | [5] > 100 µM | [6] 13.3 µM | [7] > 100 µM | [8] 45.7 µM | [9] 16 µM | [10] 28.6 µM | [11] > 100 µM | [12] > 100 µM | [13] > 100 µM | [14] 18.3 µM | [16] 72.6 µM | [17] > 100 µM

From ChEMBL document CHEMBL1201862, “PubChem BioAssay data set” (2004)
